Data reported in patent publication US7138361B2, “Herbicidal heterocycles” (E. I. du Pont de Nemours and Company, priority 2000, dated 2006).

Assays:
Format in all cases: in vivo
[1] = tested on: Surinam grass (Brachiaria decumbens); experiment: Test B preemergence
How it was run: (§1)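 Post-treatment, species sat 13–15 days under greenhouse conditions before visual scoring against controls, 0 (no effect) through 100 (complete control). Application preemergence to sown seeds or postemergence at 1- to 4-leaf stage, using a non-phytotoxic solvent/surfactant formulation.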

[2] = tested on: barnyardgrass (Echinochloa crus-galli); experiment: Test B preemergence
How it was run: as §1

[3] = tested on: cocklebur (Xanthium strumarium); experiment: Test B preemergence
How it was run: as §1

corn (Zea mays) = experiment: Test B preemergence
How it was run: as §1

[4] = tested on: crabgrass (Digitaria sanguinalis); experiment: Test B preemergence
How it was run: as §1

[5] = tested on: giant foxtail (Setaria faberii); experiment: Test B preemergence
How it was run: as §1

[6] = tested on: lambsquarters (Chenopodium album); experiment: Test B preemergence
How it was run: as §1

[7] = tested on: morning glory (Ipomoea hederacea); experiment: Test B preemergence
How it was run: as §1

[8] = tested on: pigweed (Amaranthus retroflexus); experiment: Test B preemergence
How it was run: as §1

rice (Oryza saliva) [9] = experiment: Test B preemergence
How it was run: as §1

[10] = tested on: velvetleaf (Abutilon theophrasti); experiment: Test B preemergence
How it was run: as §1

Sunflower [11] = experiment: Test C preemergence; conditions: Rate 125 g/ha; scale 0 to 100, 0 no effect, 100 complete control
[12] = tested on: pigweed (Amaranthus retroflexus); experiment: Test C preemergence; conditions: for Plant response rating (0 to 100), Pigweed: Rate 500 g/ha, visual evaluation after 12 to 14 days
How it was run: (§2)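 Visual injury scores of 0–100, with 100 meaning complete control, were given relative to controls after 12–14 days in the greenhouse. Treatments used a surfactant-containing non-phytotoxic solvent formulation, sprayed on seeded pots preemergence or on 1–4-leaf plants of 2–18 cm postemergence.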

[13] = tested on: velvetleaf (Abutilon theophrasti); experiment: Test C preemergence; conditions: for Plant response rating (0 to 100), Velvetleaf: Rate 500 g/ha, visual evaluation after 12 to 14 days
How it was run: as §2

[14] = tested on: woolly cupgrass (Eriochloa villosa); experiment: Test C preemergence; conditions: for Plant response rating (0 to 100), Cupgrass, Woolly: Rate 500 g/ha, visual evaluation after 12 to 14 days
How it was run: as §2

[15] = tested on: barnyardgrass (Echinochloa crus-galli); experiment: Test C flooded paddy test; conditions: for Barnyardgrass plant response rating: Flooded Paddy, scale 0 to 100, 0 no effect, 100 complete control; for Plant response rating, Barnyardgrass / Plant response rating (scale 0 to 100), Barnyardgrass: flooded paddy test; for Plant response rating, Barnyardgrass: scale 0 to 100 (0 no effect, 100 complete control)
How it was run: (§3)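 Greenhouse-maintained for 12 to 14 days after treatment, the paddy plants (2-leaf stage at application) were scored visually against controls. A score of 0 denotes no effect and a score of 100 denotes complete control.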

[16] = tested on: duck salad (Heteranthera limosa); experiment: Test C flooded paddy test; conditions: for Ducksalad plant response rating: Flooded Paddy, scale 0 to 100, 0 no effect, 100 complete control; for Plant response rating, Ducksalad / Plant response rating (scale 0 to 100), Ducksalad: flooded paddy test; for Plant response rating, Ducksalad: scale 0 to 100 (0 no effect, 100 complete control)
How it was run: as §3

rice (Oryza saliva) [17] = experiment: Test C flooded paddy test; conditions: for Rice plant response rating: Flooded Paddy, scale 0 to 100, 0 no effect, 100 complete control; for Plant response rating, Rice / Plant response rating (scale 0 to 100), Rice: flooded paddy test; for Plant response rating, Rice: scale 0 to 100 (0 no effect, 100 complete control)
How it was run: as §3

[18] = tested on: smallflower flatsedge (Cyperus difformis); experiment: Test C flooded paddy test; conditions: for Flatsedge plant response rating: Flooded Paddy, scale 0 to 100, 0 no effect, 100 complete control; for Plant response rating, Flatsedge / Plant response rating (scale 0 to 100), Flatsedge: flooded paddy test; for Plant response rating, Flatsedge: scale 0 to 100 (0 no effect, 100 complete control)
How it was run: as §3

Nightshade = experiment: Test C preemergence; conditions: Rate 500 g/ha, visual evaluation after 12 to 14 days
Sunflower [19] = experiment: Test C preemergence; conditions: Rate 500 g/ha, visual evaluation after 12 to 14 days
Sunflower [20] = experiment: Test C preemergence; conditions: Rate 62 g/ha, scale 0 to 100
[21] = Preemergence, Rate 500 g/ha, scale 0 to 100, 0 no effect, 100 complete control
[22] = preemergence, Rate 125 g/ha, scale of 0 to 100 where 0 is no effect and 100 is complete control, 13 to 15 days
[23] = Rate 125 g/ha, scale 0 to 100, 0 no effect, 100 complete control
[24] = preemergence, Rate 62 g/ha, scale 0 to 100
[25] = preemergence, Rate 250 g/ha, scale 0 to 100, 0 no effect, 100 complete control
[26] = Rate 16 g/ha, visually evaluated after 12 to 14 days, 0 = no effect, 100 = complete control
[27] = Rate 62 g/ha, visually evaluated after 12 to 14 days, 0 = no effect, 100 = complete control
[28] = under head Rate 16 g/ha, (own rate not given), after 12 to 14 days

CCC(C)c1ccn(C2CCN(c3ccc(Cl)c(OC)c3)C2=O)n1 (stereo not shown) [Compound 119]
Plant response rating, Surinam grass [1, 21]: 100 | Plant response rating, Surinam grass [1, 22]: 100 | Plant response rating, Barnyardgrass [2, 21]: 100 | Plant response rating, Barnyardgrass [2, 22]: 100 | Plant response rating, Cocklebur [3, 21]: 30 | Plant response rating, Cocklebur [3, 22]: 30 | Plant response rating, Corn (corn (Zea mays); [21]): 40 | Plant response rating, Corn (corn (Zea mays); [22]): 0 | Plant response rating, Crabgrass [4, 21]: 100 | Plant response rating, Crabgrass [4, 22]: 100 | Plant response rating, Foxtail, Giant [5, 21]: 100 | Plant response rating, Foxtail, Giant [5, 22]: 100 | Plant response rating, Lambsquarters [6, 21]: 100 | Plant response rating, Lambsquarters [6, 22]: 100 | Plant response rating, Morningglory [7, 21]: 70 | Plant response rating, Morningglory [7, 22]: 50 | Plant response rating, Pigweed [8, 21]: 100 | Plant response rating, Pigweed [8, 22]: 100 | Plant response rating, Rice (rice (Oryza saliva) [9]; [21]): 20 | Plant response rating, Rice (rice (Oryza saliva) [9]; [22]): 10 | Plant response rating, Velvetleaf [10, 21]: 70 | Plant response rating, Velvetleaf [10, 22]: 30 | Plant response rating, Sunflower (Sunflower [11]): 40 | Plant response rating, Pigweed [12, 23]: 50 | Plant response rating, Pigweed [12, 24]: 50 | Plant response rating (0 to 100), Pigweed ([12]; preemergence): 100 | Plant response rating, Pigweed [12, 25]: 90 | Plant response rating, Velvetleaf [13, 23]: 100 | Plant response rating, Velvetleaf [13, 24]: 60 | Plant response rating (0 to 100), Velvetleaf ([13]; preemergence): 100 | Plant response rating, Velvetleaf [13, 25]: 100 | Plant response rating, Cupgrass, Woolly [14, 23]: 100 | Plant response rating, Cupgrass, Woolly [14, 24]: 100 | Plant response rating (0 to 100), Cupgrass, Woolly ([14]; preemergence): 100 | Plant response rating, Cupgrass, Woolly [14, 25]: 100 | Barnyardgrass plant response rating ([15]; Rate 250 g/ha): 70 | Barnyardgrass plant response rating ([15]; Rate 500 g/ha): 80 | Plant response rating, Barnyardgrass ([15]; Rate 62 g/ha): 30 | Plant response rating, Barnyardgrass ([15]; Rate 125 g/ha): 70 | Ducksalad plant response rating ([16]; Rate 250 g/ha): 90 | Ducksalad plant response rating ([16]; Rate 500 g/ha): 100 | Plant response rating, Ducksalad ([16]; Rate 62 g/ha): 0 | Plant response rating, Ducksalad ([16]; Rate 125 g/ha): 20 | Rice plant response rating (rice (Oryza saliva) [17]; Rate 250 g/ha): 50 | Rice plant response rating (rice (Oryza saliva) [17]; Rate 500 g/ha): 50 | Plant response rating, Rice (rice (Oryza saliva) [17]; Rate 62 g/ha): 20 | Plant response rating, Rice (rice (Oryza saliva) [17]; Rate 125 g/ha): 40 | Flatsedge plant response rating ([18]; Rate 250 g/ha): 100 | Flatsedge plant response rating ([18]; Rate 500 g/ha): 100 | Plant response rating, Flatsedge ([18]; Rate 62 g/ha): 0 | Plant response rating, Flatsedge ([18]; Rate 125 g/ha): 100 | Plant response rating (0 to 100), Nightshade (Nightshade): 100 | Plant response rating (0 to 100), Sunflower (Sunflower [19]): 100 | Plant response rating, Sunflower (Sunflower [20]): 40

CCOc1cccc(N2CCC(n3ccc(C(C)(C)C)n3)C2=O)c1 (stereo not shown) [Compound 130]
Plant response rating, Surinam grass [1, 21]: 100 | Plant response rating, Surinam grass [1, 22]: 100 | Plant response rating, Barnyardgrass [2, 21]: 100 | Plant response rating, Barnyardgrass [2, 22]: 100 | Plant response rating, Cocklebur [3, 21]: 50 | Plant response rating, Cocklebur [3, 22]: 0 | Plant response rating, Corn (corn (Zea mays); [21]): 70 | Plant response rating, Corn (corn (Zea mays); [22]): 50 | Plant response rating, Crabgrass [4, 21]: 100 | Plant response rating, Crabgrass [4, 22]: 100 | Plant response rating, Foxtail, Giant [5, 21]: 100 | Plant response rating, Foxtail, Giant [5, 22]: 100 | Plant response rating, Lambsquarters [6, 21]: 100 | Plant response rating, Lambsquarters [6, 22]: 100 | Plant response rating, Morningglory [7, 21]: 100 | Plant response rating, Morningglory [7, 22]: 50 | Plant response rating, Pigweed [8, 21]: 100 | Plant response rating, Pigweed [8, 22]: 100 | Plant response rating, Rice (rice (Oryza saliva) [9]; [21]): 100 | Plant response rating, Rice (rice (Oryza saliva) [9]; [22]): 100 | Plant response rating, Velvetleaf [10, 21]: 50 | Plant response rating, Velvetleaf [10, 22]: 0 | Plant response rating, Sunflower (Sunflower [11]): 60 | Plant response rating, Pigweed [12, 23]: 100 | Plant response rating, Pigweed [12, 24]: 100 | Plant response rating (0 to 100), Pigweed ([12]; preemergence): 100 | Plant response rating, Pigweed [12, 25]: 100 | Plant response rating, Velvetleaf [13, 23]: 60 | Plant response rating, Velvetleaf [13, 24]: 60 | Plant response rating (0 to 100), Velvetleaf ([13]; preemergence): 60 | Plant response rating, Velvetleaf [13, 25]: 60 | Plant response rating, Cupgrass, Woolly [14, 23]: 100 | Plant response rating, Cupgrass, Woolly [14, 24]: 100 | Plant response rating (0 to 100), Cupgrass, Woolly ([14]; preemergence): 100 | Plant response rating, Cupgrass, Woolly [14, 25]: 100 | Barnyardgrass plant response rating ([15]; Rate 250 g/ha): 100 | Barnyardgrass plant response rating ([15]; Rate 500 g/ha): 100 | Plant response rating, Barnyardgrass ([15]; Rate 125 g/ha): 100 | Plant response rating (scale 0 to 100), Barnyardgrass [15, 26]: 70 | Plant response rating (scale 0 to 100), Barnyardgrass [15, 27]: 90 | Plant response rating (scale 0 to 100), Barnyardgrass [15, 28]: 50 | Ducksalad plant response rating ([16]; Rate 250 g/ha): 90 | Ducksalad plant response rating ([16]; Rate 500 g/ha): 100 | Plant response rating, Ducksalad ([16]; Rate 125 g/ha): 90 | Plant response rating (scale 0 to 100), Ducksalad [16, 26]: 70 | Plant response rating (scale 0 to 100), Ducksalad [16, 27]: 90 | Plant response rating (scale 0 to 100), Ducksalad [16, 28]: 20 | Rice plant response rating (rice (Oryza saliva) [17]; Rate 250 g/ha): 80 | Plant response rating, Rice (rice (Oryza saliva) [17]; Rate 125 g/ha): 20 | Plant response rating (scale 0 to 100), Rice (rice (Oryza saliva) [17]; [26]): 0 | Plant response rating (scale 0 to 100), Rice (rice (Oryza saliva) [17]; [27]): 50 | Plant response rating (scale 0 to 100), Rice (rice (Oryza saliva) [17]; [28]): 0 | Flatsedge plant response rating ([18]; Rate 250 g/ha): 90 | Flatsedge plant response rating ([18]; Rate 500 g/ha): 90 | Plant response rating, Flatsedge ([18]; Rate 125 g/ha): 100 | Plant response rating (scale 0 to 100), Flatsedge [18, 26]: 100 | Plant response rating (scale 0 to 100), Flatsedge [18, 27]: 90 | Plant response rating (scale 0 to 100), Flatsedge [18, 28]: 90 | Plant response rating (0 to 100), Nightshade (Nightshade): 100 | Plant response rating (0 to 100), Sunflower (Sunflower [19]): 70 | Plant response rating, Sunflower (Sunflower [20]): 60
